Results published in patent publication US20110091945A1, “METHODS OF INCREASING BIOMASS PRODUCTIVITY, LIPID INDUCTION, AND CONTROLLING METABOLITES IN ALGAE FOR PRODUCTION OF BIOFUELS USING BIOCHEMICAL STIMULANTS” (priority 2009, published 2011).

How the values were obtained:
[1] = tested on: Chlorogloea fritschii; settings: cited from earlier work
[2] = tested on: Chlorella pyrenoidosa; settings: 100 mg of malathion L^−1; cited from earlier work
[3] = tested on: Nostoc calcicola; settings: cited from earlier work
[4] = tested on: Chlorella sorokiniana; experiment: Malathion growth study: neutral lipid content; format: cell-based, Chlorella sorokiniana (UTEX 2805); settings: for increase in lipid production over the control: day 6
Experimental: • Biomass Composition: Neutral lipids were estimated using an Ankom XT10 automated extractor (Chinnasamy et al., (2010) Bioresource Technol. 101: 3097-3105). Lipid content was measured gravimetrically using hexane as solvent. The same filters used for the biomass measurements (from 25 mL of culture) were used for the lipid estimation as they provided the initial weight of biomass (W1). The filters were then placed into Ankom XT4 extraction bags, sealed with the impulse sealer and then autoclaved at 121° C. for 15 min. After drying, the extraction bags were placed in a resealable plastic bag with desiccant material while each individual bag was removed and carefully weighed (W2). Extraction bags were then placed into the Ankom extractor and extraction was performed for 2 h at 105° C. with hexane as solvent. Bags were then transferred to a forced-air oven and dried at 60° C. overnight, then cooled in a dessicator and weighed (W3). The following equation was used to calculate the lipid content of algal samples:
(§1) • Test strain: Chlorella sorokiniana (UTEX 2805) was obtained from UTEX Culture Collections and maintained in BG11 medium (Stanier et al., (1971) Bacteria Rev. 35: 171-205, incorporated herein in its entirety). The pH of culture medium was adjusted to 7.5±0.2 before inoculation and the alga was maintained in a temperature controlled growth chamber at 25±1° C. and 100±10 μmol m^−2 s^−1 light intensity with 12/12 h L/D cycle provided by cool white fluorescent (6500 K) T-8 bulbs. • Pesticide: A twelve day time-scale growth study was conducted to evaluate the effect of pesticide toxicity on algal growth and metabolism. The pesticide malathion (Spectracide, 50% v/v) was used and added to fresh BG11 medium to obtain final concentrations of 70, 140, 280 and 560 mg of malathion L^−1 for the treatments. […] After sterilization, C. sorokiniana was added as inoculum to obtain an initial biomass concentration of 0.075 g L^−1 in all the treatments in triplicates. The cultures were incubated in the growth chamber as explained above. For each sampling period, three randomly chosen flasks of each treatment were removed and then refrigerated at 4° C. until further analysis.

[5] = tested on: Chlorella sorokiniana; experiment: Malathion growth study: chlorophyll fluorescence kinetics by PAM; format: cell-based, Chlorella sorokiniana (UTEX 2805); settings: day 12; for Fv/Fm (maximum photosynthetic efficiency of PSII): control 0.672
Experimental: A 2% neutral lipid corn standard supplied by Ankom was used as an analytical standard. Carbon, hydrogen, nitrogen, and sulfur percentages in the biomass were estimated using a LECO CHNS932 elemental analyzer. • Chlorophyll fluorescence kinetics by PAM: The Pulse-Amplitude-Modulation Fluorometer (Mini-PAM, WALZ GmBH, Effeltrich, Germany) used for chlorophyll a fluorescence measurements were performed in real-time using the mini-PAM's internal halogen light as the actinic light source for fluorescence measurements of maximum photosynthetic yield, effective photosynthetic yield (PSII), electron transfer rate (ETR), photosynthetic quenching (qP) and non photochemical quenching (NPQ). The algal samples were dark adapted for one hour prior to the analysis. A small quantity (2.5 mL) of dark adopted sample in a 10 mm path length cuvette was placed in a dark chamber. The PAM fluorometer was connected to the sample via a fiber optic bundle. After stabilization of the auto fluorescence, the probing light beam was turned on and the baseline fluorescence (Fo) was recorded. A single saturating flash (1 s, 8,000 μmol m^−2 s^−1) was then applied to reach maximal fluorescence (Fm). The maximum photosynthetic efficiency of PSII was estimated as in the following equation for the dark adopted culture:
The induction kinetics were initiated by turning on the actinic light source (100 μmol m^−2 s^−1). During the induction curve under actinic light (AL) exposure, saturating light pulses (1 s; 8,000 μmol m^−2 s^−1) were given every 20 seconds to determine the effective quantum yield (Φ PSII), electron transfer rates (ETR), photochemical (qP) and non-photochemical (NPQ) quenching. The qP value was determined by the PAM data analysis software, which uses Fo as opposed to Fo′ in the equation providing a estimate of qP rather than an absolute measurement using far-red light exposure. These tests were done in duplicates.
as §1

Which results are given for `CCOC(=O)CC(SP(=S)(OC)OC)C(=O)OCC` (stereo not shown) [malathion, 2-(dimethoxyphosphinothioylthio)butanedioic acid diethyl ester]?
concentration that permanently suppressed the growth [1]: 200 mg/L; effect on growth, in words [2]: very little effect on the growth; concentration above which growth was reduced [3]: above 500 mg L^−1; increase in lipid production over the control ([4]; 70 mg malathion L^−1): 70%; increase in lipid over control ([4]; 70 mg malathion L^−1, day 9): 42%; increase in lipid production over the control ([4]; 140 mg malathion L^−1): 110%; increase in lipid over control ([4]; 140 mg malathion L^−1, day 9): 119%; increase in lipid content over control ([4]; 140 mg malathion L^−1, day 12): 25%; increase in lipid production over the control ([4]; 280 mg malathion L^−1): 325%; increase in lipid over control ([4]; 280 mg malathion L^−1, day 9): 212%; increase in lipid content of the cells with respect to day 3 ([4]; T1, 70 mg malathion L^−1, day 9, control 97%): 193%; increase in lipid content of the cells with respect to day 3 ([4]; T1, 70 mg malathion L^−1, day 12, control 287%): 406%; increase in lipid content of the cells with respect to day 3 ([4]; T2, 140 mg malathion L^−1, day 9, control 97%): 150%; increase in lipid content of the cells with respect to day 3 ([4]; T2, 140 mg malathion L^−1, day 12, control 287%): 574%; increase in lipid production ([4]; concentrations ranging from 70-280 mg L^−1 in the growth medium): 70-325%; effective photosynthetic yield, higher over the control ([5]; 70 mg malathion L^−1): about 1.2 times; electron transfer rate, higher over the control ([5]; 70 mg malathion L^−1): about 1.2 times; non-photochemical quenching (NPQ) versus control, in words ([5]; 70 mg malathion L^−1): comparable with the control; photochemical quenching, higher over the control ([5]; 70 mg malathion L^−1): about 1.2 times; Fv/Fm (maximum photosynthetic efficiency of PSII) ([5]; 70 mg malathion L^−1): 0.671; effective photosynthetic yield, higher over the control ([5]; 140 mg malathion L^−1): about 1.2 times; electron transfer rate, higher over the control ([5]; 140 mg malathion L^−1): about 1.2 times; non-photochemical quenching (NPQ), less than the control ([5]; 140 mg malathion L^−1): 18%; photochemical quenching, higher over the control ([5]; 140 mg malathion L^−1): about 1.2 times; Fv/Fm (maximum photosynthetic efficiency of PSII) ([5]; 140 mg malathion L^−1): 0.641
